Data: ChEMBL document CHEMBL3301451, “MMV Malaria Box gametocyte functional viability assay screening”

Columns and labels:
[1] = test system: Plasmodium berghei; assay: (§1) MMV: P. berghei-infected blood was withdrawn from mice by cardiac pucture before being immediately added to ookinete culture medium containing test compounds. 26 hr later, GFP-positive ookinetes were identified and counted by automated microscopy. All compounds were tested in 4 independent experiments and data presented here is the mean.; type: functional; design: concentration or dose not given beside the values
[2] = test system: Plasmodium berghei; assay: as §1, with “mean. IC50s determined for selected compounds.” for “mean.”; type: functional, organism-based
[3] = test system: Plasmodium falciparum; assay: (§2) MMV: P. falciparum NF54 functionally mature Stage V gametocytes were incubated for 24 hr in the presence of the test compounds. Gamete formation was then triggered by addition of 2uM xantheurenic acid and temperature decrease to ~20C. Male gamete exflagellation was recorded and analysed by automated microscopy after 20 min. All compounds were tested in 4 independent experiments and data presented here is the mean.; type: functional; design: concentration or dose not given beside the values
[4] = test system: Plasmodium falciparum; assay: as §2, with “Female” for “Male”, “formation” for “exflagellation”, “24 hr later” for “and analysed”, “detection of surface labelling of female gametes with a Cy3-conjugated antibody reactive to Pfs25.” for “after 20 min.”; type: functional; design: concentration or dose not given beside the values; settings: NF54, 24 h
[5] = test system: Plasmodium falciparum; assay: as §2, with “mean. IC50s determined for selected compounds.” for “mean.”; type: functional, organism-based
[6] = test system: Plasmodium falciparum; assay: as §2, with “Female” for “Male”, “formation” for “exflagellation”, “24 hr later” for “and analysed”, “detection of surface labelling of female gametes with a Cy3-conjugated antibody reactive to Pfs25.” for “after 20 min.”, “mean. IC50s determined for selected compounds.” for “mean.”; type: functional, organism-based; settings: NF54, 24 h

| Structure (SMILES) | inhibition [1] [%] | IC50 [2] [nM] | inhibition [3] [%] | inhibition [4] [%] | IC50 [5] [nM] | IC50 [6] [nM] |
| --- | --- | --- | --- | --- | --- | --- |
| COc1ccc(C2c3ccc4ccccc4c3Oc3ncn(CCCN(C)C)c(=N)c32)cc1 (stereo unspecified) | -7.365 | 3490 | 83.6 | 27.3 | 183 | 473 |
| CCOC(=O)c1cnc2ccc(CC)cc2c1O | 97.88 | 287 | 65.8 | 9.93 | 570 | > 50000 |
| OC1=C2C(=Nc3ccccc3SC2c2ccc(Br)cc2)c2ccccc21 (stereo unspecified) | 56.77 | 2270 | 62.9 | 8.27 | 3410 | > 50000 |
| OC1=C2C(=Nc3ccccc3SC2c2ccccc2)c2ccccc21 (stereo unspecified) | 97.46 | 12800 | 58.8 | -16.4 | 3240 | > 50000 |
| CN(C)CCCNc1c2ccccc2nc2ccccc12 | 96.2 | 292 | 97.5 | 24.6 | 130 | 1070 |
| CCOC(=O)c1cn(CC)c2cc(N3CCCCC3)c(F)cc2c1=O | 41.89 | 2190 | 92.4 | -15.2 | 365 | > 50000 |
| COc1ccc(C=C2SC(=N)N(c3ccccc3OC)C2=O)cc1 | 72.74 | 96.2 | 77.3 | -7.34 | 481 | > 50000 |
| OC1CCCCC1C1(NC(=S)Nc2ccccc2)CCCCC1 (stereo unspecified) | 14.01 | 16400 | 80.7 | 73.8 | 384 | 614 |
| Cl.Clc1cc(Br)ccc1-c1ccc(CNCC2CCNCC2)o1 | -9.542 | 7820 | 74.1 | 38.1 | 25.5 | 159 |
| COc1ccccc1NC1=C(N2CCCCC2)C(=O)c2ccccc2C1=O | -14.08 | 4250 | 96.8 | -15.9 | 96 | > 50000 |
| CN(C)c1ccc(C(O)(c2ccc(N(C)C)cc2)c2ccc(N(C)C)cc2)cc1 [METHYLROSANILINE] | 62.53 | 991 | 19.7 | 44.6 | 977 | 446 |
